Source: US10159697B2, “Methods for enhancing hematopoietic stem/progenitor cell engraftment” (CHILDREN'S MEDICAL CENTER CORPORATION, priority 2009, dated 2018)

Tested on: hematopoietic stem and/or progenitor cell engraftment
Assay: adult zebrafish whole kidney marrow competitive transplantation assay
Assay type: in vivo
Details: for engraftment signal in pilot screen of 10 bioactive compounds: by four weeks post transplant, 10 recipients per treatment; for average G/R / percentage of positive recipients: green marrow cells incubated in vitro for 4 hrs, mixed with red marrow 1:4, 4 wpt, compared with DMSO control; for engraftment: in vitro incubation of green marrow with 10 μM dmPGE2 or 0.5 μM BIO at room temperature for 2-4 hours, by 4 weeks post transplant
From the text: A transparent adult zebrafish, casper, was used as a transplantation recipient. Casper is a double homozygous pigment mutant for the nacre allele (devoid of melanocytes) and the roy allele (devoid of iridophores and reduced melanoyctyes), which allows direct visualization of GFP labeled hematopoietic stem cell homing and engraftment without killing the recipients. Two marrows are used: Tg(β-actin:GFP) and Red GloFish® respectively to compete with each other at varying ratios e.g., 1:4, which can generate robust competition between the two donors. In one embodiment, the red marrow is the competitor, as well as an internal control for the transplant. At different timepoints post-transplant, the recipients are anesthetized and two pictures for each recipient are taken by a fluorescence stereomicroscope with GFP/DsRed filters individually. Images are analyzed by software, such as ImageJ, which can quantify the GFP/DsRed fluorescence intensity. The relative engraftment efficiency of the manipulated green marrow is measured by the ratio of the GFP intensity over the DsRed intensity within the same kidney region after background subtraction (labeled as G/R).
A double-color labeled competitive transplantation assay was developed, as shown by the flow chart in FIG. 1A. GFP+ and DsRed2+ marrow cells are isolated from Tg(β-actin:GFP) and commercially available Red GloFish®. The two donor populations are mixed at a certain ratio and injected into sublethally irradiated casper recipients retro-orbitally. The DsRed2+ marrow is used as the competitor. Four weeks later, the engraftment is visualized by fluorescence dissection scope. Pictures of GFP and DsRed engraftment are taken for each recipient and analyzed by ImageJ. The kidney region is manually selected and the average fluorescence intensities of both green and red are measured within the same region. The average background intensity is measured in a region outside the fish, and subtracted from the kidney intensity. The calculation of the relative engraftment is shown by the equation in FIG. 1B.
Adult zebrafish donors are anaesthetized with 0.2% tricaine before blood and kidney collection. Peripheral blood is obtained from adult casper by cardiac puncture with micropipette tips coated with heparin and collected into 0.9×PBS containing 5% FCS. About 3-5 million red blood cells are harvested from one donor. To dissect whole kidney marrow (WKM), a ventral midline incision is made on the donor fish. Whole kidney is dissected out and placed into ice-cold 0.9×PBS containing 5% FCS. Single-cell suspensions are generated by aspiration followed by filtering through a […] nylon mesh filter into a 50 ml conical tube. The flow-though part is diluted with a final volume of 25 ml and centrifuged at 1,500 rpm for 8 minutes. The supernatant is discarded and the pellet cells are resuspended in 1 ml 0.9×PBS containing 5% FCS. The number of viable cells are counted with a hemocytometer. […] Finally, the peripheral blood and kidney marrow cells are centrifuged at 1,500 rpm for 8 minutes, resuspended in 0.9×PBS containing 5% FCS and mixed at a certain ratio and concentration. Casper recipients are anesthetized in tricaine. 4 μl of the cell suspension mixture described above is injected into the circulation retro-orbitally through a Hamilton syringe (26 s gauge, 10 μl volume). […] Transplanted recipients can be anesthetized in tricaine and visualized over time on a Zeiss Discovery V8 stereomicroscope with a 1.2× PlanApo lens and GFP/DsRed filters. Images are captured using AxioVision software and for each recipient, two images are taken with GFP or DsRed filter respectively. The images are all saved in .tif format and analyzed using ImageJ software.

Structure (SMILES) | score in the competitive transplant model (at 3 months) | score in the competitive transplant model (at 4 weeks) | engraftment signal in pilot screen of 10 bioactive compounds | average G/R | percentage of positive recipients | engraftment
CCCCC(C)(C)[C@H](O)/C=C/[C@H]1[C@H](O)CC(=O)[C@@H]1C/C=C\CCCC(=O)O [dmPGE2, 16-,16-dimethyl Prostaglandin E2] | score positive | score positive | enhanced signal above the rest of the chemicals tested | significantly increased | significantly increased | increase engraftment
O=C1Nc2cc(Br)ccc2C1=C1Nc2ccccc2C1=NO [BIO, 6-bromorindirubin-3′-oxime] | score positive | score positive | enhanced signal above the rest of the chemicals tested | significantly increased | significantly increased | increase engraftment
